Experimental data from PubChem BioAssay (NCI).
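Protocol summary: plate cells (96-well), add compound at 5 concentrations, incubate 48 h, interpolate endpoints linearly. Abbreviation: GI50, concentration required for 50% inhibition of growth. TGI: total growth inhibition.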

How the values were obtained:
Assay in all cases: NCI-60 cell line screen, 48 h
OVCAR-5 ovarian = system: OVCAR-5 ovarian
SF-268 CNS = system: SF-268 CNS
HCT-15 colon = system: HCT-15 colon
SK-MEL-2 melanoma = system: SK-MEL-2 melanoma
M14 melanoma = system: M14 melanoma
HT29 colon = system: HT29 colon
SK-MEL-28 melanoma = system: SK-MEL-28 melanoma
IGROV1 ovarian = system: IGROV1 ovarian
COLO 205 colon = system: COLO 205 colon
NCI/ADR-RES ovarian = system: NCI/ADR-RES ovarian

| Compound | TGI (OVCAR-5 ovarian) [µM] | TGI (SF-268 CNS) [µM] | TGI (HCT-15 colon) [µM] | TGI (SK-MEL-2 melanoma) [µM] | TGI (M14 melanoma) [µM] | TGI (HT29 colon) [µM] | TGI (SK-MEL-28 melanoma) [µM] | TGI (IGROV1 ovarian) [µM] | TGI (COLO 205 colon) [µM] | TGI (NCI/ADR-RES ovarian) [µM] | GI50 (OVCAR-5 ovarian) [µM] | GI50 (SF-268 CNS) [µM] | GI50 (HCT-15 colon) [µM] | GI50 (COLO 205 colon) [µM] | GI50 (M14 melanoma) [µM] | GI50 (HT29 colon) [µM] | GI50 (SK-MEL-28 melanoma) [µM] | GI50 (IGROV1 ovarian) [µM] | GI50 (NCI/ADR-RES ovarian) [µM] |
| --- | --- | --- | --- | --- | --- | --- | --- | --- | --- | --- | --- | --- | --- | --- | --- | --- | --- | --- | --- |
| CCN(CC)C(=O)CNC(=O)OC(C)(C)C | > 100 | > 100 | > 100 | > 100 | > 100 | > 100 | > 100 | > 100 | – | – | – | – | – | – | – | – | – | – | – |
| COc1cc([C@@H]2c3cc4c(cc3[C@@H](NCc3ccc(C#N)cc3)C3COC(=O)[C@@H]32)OCO4)cc(OC)c1O (stereo partly specified) | 8.71 | 6.6 | 3.01 | 6.54 | 6.55 | 3.15 | 15.2 | 7.29 | 6.32 | – | – | – | – | – | – | – | – | – | – |
| Cc1[nH]c2ccccc2c1C1CC(=O)NC1=O (stereo unspecified) | > 100 | – | > 100 | > 100 | > 100 | – | > 100 | > 100 | – | – | – | – | – | – | – | – | – | – | – |
| CCC(O)(c1ccc(OC)cc1)C(c1ccc(OCc2ccccc2)cc1)c1ccc(OCc2ccccc2)cc1 (stereo unspecified) | > 100 | > 100 | > 100 | > 100 | > 100 | > 100 | > 100 | > 100 | > 100 | – | – | – | – | – | – | – | – | – | – |
| CC(C(=O)c1ccccc1)C1(O)C(=O)Nc2ccccc21 (stereo unspecified) | > 100 | > 100 | > 100 | > 100 | > 100 | > 100 | > 100 | > 100 | > 100 | – | – | – | – | – | – | – | – | – | – |
| C/C(=N\NS(=O)(=O)c1ccc(C)cc1)c1c(O)cc(C)oc1=O | – | > 100 | > 100 | > 100 | > 100 | > 100 | > 100 | > 100 | – | – | – | – | – | – | – | – | – | – | – |
| C[C@]12CC(C#N)C(=O)C(O)=C1CC[C@@H]1C2CC[C@@]2(C)C1CC[C@@H]2O (stereo partly specified) | > 100 | > 100 | > 100 | > 100 | > 100 | > 100 | > 100 | 63.7 | > 100 | – | – | – | – | – | – | – | – | – | – |
| O=C(N/C(=C\c1ccc([N+](=O)[O-])cc1)c1nc2ccc(Cl)cc2[nH]1)c1ccccc1 | 74.5 | 42.8 | 31.2 | 48.1 | 31.3 | 43.9 | 83.7 | 43.8 | – | – | – | – | – | – | – | – | – | – | – |
| CC1Cc2c(N)nc(N3CCOCC3)nc2NC1=O (stereo unspecified) | – | – | > 100 | > 100 | > 100 | > 100 | > 100 | > 100 | > 100 | – | – | – | – | – | – | – | – | – | – |
| CC(C)c1cccc(C(C)C)c1N=C(N)C#N | > 100 | > 100 | > 58.2 | > 100 | > 100 | > 100 | > 100 | > 100 | > 59.1 | – | – | – | – | – | – | – | – | – | – |
| COC1OC(CBr)C(OC(c2ccccc2)(c2ccccc2)c2ccccc2)C(OC(c2ccccc2)(c2ccccc2)c2ccccc2)C1OC(c1ccccc1)(c1ccccc1)c1ccccc1 (stereo unspecified) | > 100 | > 100 | > 100 | – | > 100 | > 100 | > 100 | > 100 | > 100 | > 100 | – | – | – | – | – | – | – | – | – |
| C[C@@H](NC1CCC[C@@H]1O)c1ccccc1 (stereo partly specified) | > 100 | – | > 100 | > 100 | > 100 | > 100 | > 100 | > 100 | > 100 | – | – | – | – | – | – | – | – | – | – |
| CCCC1C(=O)C(CC)Cc2c(OC)ccc(OC)c21 (stereo unspecified) | > 100 | > 100 | > 100 | > 100 | > 100 | > 100 | > 100 | > 100 | > 100 | – | – | – | – | – | – | – | – | – | – |
| C[Si](C)(C)/C=C\CCCN1C(=O)CCC1=O | > 100 | > 100 | > 100 | > 100 | > 100 | > 100 | > 100 | > 100 | > 100 | – | – | – | – | – | – | – | – | – | – |
| CC(=O)NC1C(OCc2ccccc2)OC(COC(=O)CCCCCNc2ccc([N+](=O)[O-])c3[nH]c4ccc(O)cc4c(=O)c23)C(O)C1OC(C)C(=O)N[C@@H](C)C(=O)N[C@H](CCC(=O)OCc1ccccc1)C(N)=O (stereo partly specified) | 3.81 | 9.41 | 3.67 | 3.98 | 3.15 | 3.09 | 6.9 | 34 | 3.25 | – | – | – | – | – | – | – | – | – | – |
| O=S1c2ccccc2N=C(c2ccc(Cl)cc2)CC1c1cccs1 (stereo unspecified) | 61.3 | > 100 | 29.1 | – | 37.4 | 49.4 | 38.4 | 35.7 | 41 | – | – | – | – | – | – | – | – | – | – |
| CC1=C(/C=C/C2=CC(=C\C(=O)O)/CC(C3=C(C)CCCC3(C)C)C2)C(C)(C)CCC1 (stereo unspecified) | 29.9 | 36.1 | – | 23.5 | 28.5 | 28.6 | 29.5 | 26.4 | 30.7 | – | – | – | – | – | – | – | – | – | – |

| Compound | TGI (OVCAR-5 ovarian) [µM] | TGI (SF-268 CNS) [µM] | TGI (HCT-15 colon) [µM] | TGI (SK-MEL-2 melanoma) [µM] | TGI (M14 melanoma) [µM] | TGI (HT29 colon) [µM] | TGI (SK-MEL-28 melanoma) [µM] | TGI (IGROV1 ovarian) [µM] | TGI (COLO 205 colon) [µM] | TGI (NCI/ADR-RES ovarian) [µM] | GI50 (OVCAR-5 ovarian) [µM] | GI50 (SF-268 CNS) [µM] | GI50 (HCT-15 colon) [µM] | GI50 (COLO 205 colon) [µM] | GI50 (M14 melanoma) [µM] | GI50 (HT29 colon) [µM] | GI50 (SK-MEL-28 melanoma) [µM] | GI50 (IGROV1 ovarian) [µM] | GI50 (NCI/ADR-RES ovarian) [µM] |
| --- | --- | --- | --- | --- | --- | --- | --- | --- | --- | --- | --- | --- | --- | --- | --- | --- | --- | --- | --- |
| COc1cc2ccnc3c2c(c1OC)CC1CC(O)C(OC)CC31 (stereo unspecified) | > 100 | – | > 100 | > 100 | > 100 | > 100 | 75.2 | > 100 | > 100 | – | – | – | – | – | – | – | – | – | – |
| O=C1NC(=O)C(=O)C(c2nc3ccccc3s2)C1=O | – | > 100 | > 100 | > 100 | > 100 | > 100 | > 100 | > 100 | > 100 | – | – | – | – | – | – | – | – | – | – |
| CC1=C2C(=O)C(C)(C)C=C2C(=O)[C@](C)(O)C12CC2 | > 1 | > 1 | > 1 | > 1 | > 1 | > 1 | > 1 | > 1 | > 1 | – | – | – | – | – | – | – | – | – | – |
| CCOC(=O)/C(C#N)=C\C=C1/C=CNC2=NCCN21 | – | > 100 | > 100 | > 100 | > 100 | > 100 | > 100 | > 100 | > 100 | – | – | – | – | – | – | – | – | – | – |
| O=C(c1cc2c(C(F)(F)F)onc2c2ccccc12)C(F)(F)F | > 100 | 19.9 | > 29 | 13.6 | > 58.6 | > 61.7 | > 75.1 | > 100 | 9.11 | – | – | – | – | – | – | – | – | – | – |
| CCN(CC)CCOC(=O)/C(=C/c1ccc(OC)cc1)c1cc(OC)c(OC)c(OC)c1 | 43.7 | > 100 | > 100 | – | 19.9 | 18 | > 100 | > 100 | 18.9 | – | – | – | – | – | – | – | – | – | – |
| CC(C)Cc1ccc(C(C)/C=C2\CCC(CN3CCCC3)C2=O)cc1 (stereo unspecified) | 36.3 | 12.3 | 13.3 | 31.8 | 29.6 | 23.2 | 28.4 | 19 | 22.1 | – | – | – | – | – | – | – | – | – | – |
| N#CC(C(=O)CCC(=O)Nc1ccc(Cl)cc1)c1ccccc1Cl (stereo unspecified) | > 100 | > 100 | > 100 | > 100 | > 100 | – | > 100 | > 100 | > 100 | – | – | – | – | – | – | – | – | – | – |
| c1ccc2c(c1)nnn2CNc1ccc(N2CCOCC2)cc1 | – | > 100 | > 100 | > 100 | > 100 | > 100 | > 100 | > 100 | > 100 | – | – | – | – | – | – | – | – | – | – |
| CCCCCCCC(=O)OCC1OC(n2cc(F)c(=O)[nH]c2=O)C(NC(=O)OCc2ccccc2)C(OC(=O)CCCCCCC)C1O (stereo unspecified) | – | > 100 | > 100 | 57.1 | 91.7 | > 100 | > 100 | > 100 | 68.3 | – | – | – | – | – | – | – | – | – | – |
| Cc1ccc(NC(=O)CC/C(CC(=O)c2ccc(Cl)cc2)=N\NC(=O)C(=O)NN)cc1C | > 100 | > 100 | > 100 | > 100 | > 100 | > 100 | > 100 | > 100 | > 100 | – | – | – | – | – | – | – | – | – | – |
| NNC(=O)CCC(=O)Nc1ccc(Cl)cc1Cl | > 100 | > 100 | > 100 | > 100 | > 100 | > 100 | > 100 | > 100 | > 100 | – | – | – | – | – | – | – | – | – | – |
| CC(=O)O[C@H]1CCC2[C@@H]3CCC4Nc5c(cnn5-c5ccccc5)C[C@]4(C)C3CC[C@@]21C (stereo partly specified) | 60.1 | > 100 | 47.8 | 35.8 | 29.9 | 34.9 | – | > 100 | 28.9 | – | – | – | – | – | – | – | – | – | – |
| S=P(c1ccccc1)(c1ccccc1)C1(C2(P(=S)(c3ccccc3)c3ccccc3)CC2)CC1 | > 100 | > 100 | > 100 | > 100 | > 100 | > 100 | > 100 | > 100 | > 100 | – | – | – | – | – | – | – | – | – | – |
| O=C(COc1ccc(Cl)cc1)N1N=C(c2ccc([N+](=O)[O-])o2)CC1(O)c1ccccc1 (stereo unspecified) | 29.7 | 33.4 | 18.5 | 21 | 29.5 | 16.3 | 25.1 | 42 | 14.8 | – | – | – | – | – | – | – | – | – | – |
| CN(C)Cc1cccc(CN(C)C)[c]1[Sn]([Br])([c]1ccccc1)[c]1ccccc1 | 32.5 | 17.5 | 29.4 | – | 30.6 | 71.8 | 35.2 | 4.52 | 17.9 | > 100 | 16.7 | 3.77 | 14.5 | 4.37 | 15.9 | 8.18 | 14.5 | 0.436 | 44 |
